Experimental data reported in patent US11851391B2, “Antifungal compounds and methods of forming the same” (University of Kentucky Research Foundation, priority 2018, dated 2023).
In brackets after ≈: the same amount, converted by molar mass. Entries after “also recorded” stand apart in the source; their conditions may differ. Where two headings read alike, the source gives them in different places.

Key:
[1] = Solubility of the compounds; assay type: physicochemical
[2] = tested on: C. albicans ATCC MYA-1003(R) (strain G); test: MIC determination, in vitro antifungal assay (CLSI M27-A3); assay type: cell-based, Candida albicans; conditions: Candida albicans, 48 h, MIC-0, 48 h at 35° C., read-out: MIC
Method in brief: (§1)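 Testing follows CLSI M27-A3 with cells cultured at 35° C in RPMI 1640 (L-glutamine, no bicarbonate) buffered by 0.165 M MOPS to pH 7.0. Cell density was set by OD600 before dilution to 2-4×10^3 CFU/mL, and solvent was limited to <1.25% DMSO.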

[3] = tested on: C. albicans ATCC MYA-2876(S) (strain C); test: as above; assay type: cell-based, Candida albicans; conditions: Candida albicans, 48 h, MIC-0, 48 h at 35° C., read-out: MIC
Method in brief: as §1

[4] = tested on: Candida parapsilosis ATCC 22019 (strain J); test: as above; assay type: cell-based; conditions: Lodderomyces parapsilosis, read-out: MIC
Method in brief: (§2)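 Broth microdilution per CLSI M27-A3 with minor modifications, in RPMI 1640 buffered to pH 7.0 with 0.165 M MOPS at 35° C. Overnight YPD cultures were diluted to 2-4×10^3 CFU/mL in RPMI; DMSO kept <1.25%. MIC taken as lowest concentration giving complete inhibition (MIC-0).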

[5] = tested on: Candida albicans ATCC 10231(R) (strain A); test: as above; assay type: cell-based; conditions: Candida albicans, ATCC10231, 48 h, MIC-0 (no visible growth), 48 h at 35° C., read-out: MIC
Method in brief: as §2

[6] = tested on: C. albicans ATCC MYA-1237(R) (strain F); test: as above; assay type: cell-based, Candida albicans; conditions: Candida albicans, read-out: MIC
Method in brief: as §2

[7] = tested on: C. albicans ATCC 64124(R) (strain B); test: as above; assay type: cell-based, Candida albicans; conditions: Candida albicans, read-out: MIC
Method in brief: as §2

[8] = tested on: C. albicans ATCC 90819(R) (strain D); test: as above; assay type: cell-based, Candida albicans; conditions: Candida albicans, ATCC90819, 48 h, MIC-0, 48 h at 35° C., read-out: MIC
Method in brief: as §2

[9] = tested on: C. albicans ATCC MYA-2310(S) (strain E); test: as above; assay type: cell-based, Candida albicans; conditions: Candida albicans, read-out: MIC
Method in brief: as §2

[10] = tested on: various bacterial strains, including Listeria monocytogenes, methicillin-resistant Staphylococcus aureus, and vancomycin-resistant enterococci; test: Antibacterial activity; assay type: cell-based
Source text: The activity of N,N′-diaryl-bishydrazones 7-22 was explored against various bacterial strains, including Listeria monocytogenes, methicillin-resistant Staphylococcus aureus, and vancomycin-resistant enterococci.

[11] = tested on: Candida krusei ATCC 6258 (strain I); test: MIC determination, in vitro antifungal assay (CLSI M27-A3); assay type: cell-based; conditions: Pichia kudriavzevii, ATCC6258, 48 h, MIC-0, 48 h at 35° C., read-out: MIC
Method in brief: as §1

[12] = tested on: Candida glabrata ATCC 2001 (strain H); test: as above; assay type: cell-based; conditions: MIC-0, 48 h at 35° C.
Method in brief: as §1

[13] = tested on: various yeast strains and filamentous fungi (strains A-M); test: Antifungal activity over the whole panel (summary of MIC data); assay type: cell-based, Candida and Aspergillus strains
Description: The activity of N,N′-diaryl-bishydrazones 7-22 was tested against a panel of seven strains of C. albicans: ATCC 10231(R) (A), ATCC 64124(R) (B), ATCC MYA-2876(S) (C), ATCC 90819(R) (D), ATCC MYA-2310(S) (E), ATCC MYA-1237(R) (F), and ATCC MYA-1003(R) (G). The activity of these bishydrazones 7-22 was also explored against a panel of three non-albicans Candida strains: C. glabrata ATCC 2001 (H), C. krusei ATCC 6258 (I), and C. parapsilosis ATCC 22019 (J). Finally, the activity of these bishydrazones 7-22 was explored against three Aspergillus strains: A. flavus ATCC MYA-3631 (K), A. nidulans ATCC 38163 (L), and A. terreus ATCC MYA-3633 (M).
The MIC values of compounds 7a-24c against yeast cells (strains A-J) were determined in 96-well plates as described in the CLSI document M27-A3 with minor modifications. A single colony of freshly prepared yeast cells was used to inoculate 5 mL of yeast extract peptone dextrose (YPD) broth prior to incubation overnight with shaking at 200 rpm at 35° C. From the actively growing yeast culture, 100 μL were then transferred to 900 μL of sterile ddH2O and re-adjusted to achieve OD600 of 0.12 (˜1×10^6 CFU/mL). The cell suspension was further diluted to achieve 2-4×10^3 CFU/mL in RPMI 1640 medium. […] The final concentration of DMSO was ensured to be <1.25% in all experiments. The MIC values for compounds 7a-24c and CAS were defined as the minimum drug concentration that yielded complete inhibition (also known as MIC-0).
Similarly, the MIC values of compounds 7a-24c, as well as that of the two control drugs against filamentous fungi (strains K-M) were determined as previously described in CLSI document M38-A2. Spores were harvested from sporulating cultures growing on potato dextrose agar (PDA) by filtration through sterile glass wool and enumerated by using a hemocytometer to obtain the desired inoculum size. […] Spore suspensions were added to the wells to afford a final concentration of 5×10^5 CFU/mL. The plates were incubated at 35° C. for 48 h. The MIC values of compounds 7a-24c and CAS against filamentous fungi were based on the complete inhibition of growth when compared to the growth control (MIC-0). […] Each test was performed in triplicate.

[14] = tested on: Aspergillus flavus ATCC MYA-3631 (strain K); test: MIC determination against filamentous fungi (CLSI M38-A2); assay type: cell-based; conditions: Aspergillus flavus, 48 h, MIC-0, 48 h at 35° C., read-out: MIC
Method in brief: (§3)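 MIC-0, meaning no visible growth relative to growth control, was scored after 48 h at 35° C, in triplicate. Hemocytometer-counted spores from potato dextrose agar were inoculated at 5×10^5 CFU/mL final. The medium was MOPS-buffered (0.165 M) RPMI 1640 at pH 7.0, following CLSI M38-A2.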

[15] = tested on: Aspergillus nidulans ATCC 38163 (strain L); test: as above; assay type: cell-based; conditions: Aspergillus nidulans, ATCC38163, 48 h, MIC-0, 48 h at 35° C., read-out: MIC
Method in brief: as §3

[16] = tested on: Aspergillus terreus ATCC MYA-3633 (strain M); test: as above; assay type: cell-based; conditions: Aspergillus terreus, 48 h, MIC-0, 48 h at 35° C., read-out: MIC
Method in brief: as §3

[17] = tested on: murine red blood cells (mRBCs); conditions: mouse, 60 min
Description: Thus, the hemolytic activity for these bishydrazones was investigated against murine red blood cells (mRBCs).
Murine red blood cells (mRBCs) were prepared by suspending 1 mL of murine blood in 3 mL of PBS prior to centrifugation at 1,000 rpm for 5 min. The mRBCs were washed four times in PBS and resuspended in the same buffer to a final concentration of 10^7 mRBC/mL. […] The tubes were incubated at 37° C. for 60 min. […] Eppendorf tubes containing 200 μL of ddH2O and 2 μL of 1% v/v Triton™ X-100 served as negative (blank) and positive controls, respectively. The percentage of hemolysis was calculated using the following equation: % hemolysis=[(absorbance of sample)−(absorbance of blank)]×100/(absorbance of positive control).

[18] = tested on: C. albicans ATCC 90819(R) (strain D); test: MIC determination, in vitro antifungal assay (CLSI M27-A3); assay type: cell-based; conditions: Candida albicans, ATCC90819, strain D; MIC-2 (50% growth inhibition), reported for VOR
[19] = MIC-2 (50% growth inhibition), reported for VOR

COc1cccc(N/N=C/c2ccc(-c3ccc(/C=N/Nc4cccc(OC)c4)cc3)cc2)c1 [Compound 11b]
solubility (in words) [1]: limited solubility; also recorded: insoluble

FC(F)(F)c1ccc(N/N=C/c2ccc(-c3cccc(/C=N/Nc4ccc(C(F)(F)F)cc4)c3)cc2)cc1 [Compound 14a]
solubility (in words) [1]: limited solubility; also recorded: insoluble

CC(C)(C)N/N=C/c1ccc(-c2ccc(/C=N/NC(C)(C)C)cc2)cc1 [Compound 23b]
MIC [2]: > 31.3 µg/mL
MIC [3]: > 31.3 µg/mL
MIC ([4]; ATCC22019, 48 h, strain J, MIC-0, 48 h at 35° C.): > 31.3 µg/mL
MIC [5]: 31.3 µg/mL (≈ 89.3 µM)
MIC ([6]; 48 h, MIC-0, 48 h at 35° C.): 31.3 µg/mL (≈ 89.3 µM)
MIC ([7]; ATCC64124, 48 h, strain B, MIC-0, 48 h at 35° C.): 31.3 µg/mL (≈ 89.3 µM)
MIC [8]: > 31.3 µg/mL
MIC ([9]; 48 h, MIC-0, 48 h at 35° C.): 31.3 µg/mL (≈ 89.3 µM)
antibacterial activity (in words) [10]: neither the N,N′-diaryl-bishydrazones 7-22 nor the N,N′-di-tert-butyl-bishydrazone 23b displayed antibacterial activity; also recorded: Neither the N,N′-diaryl-bishydrazones 7-22 or the N,N′-dialkyl-bishydrazone 23b displayed antibacterial activity
MIC [11]: 31.3 µg/mL (≈ 89.3 µM)
MIC [12]: 15.6 µg/mL (≈ 44.5 µM)
MIC ([12]; Nakaseomyces glabratus, ATCC2001, 48 h, read-out: MIC): 15.6 µg/mL (≈ 44.5 µM)
MIC ([13]; against all fungal strains tested, with named exceptions, read-out: antifungal activity class based on MIC values): ≥ 31.3 µg/mL
antifungal activity (in words) ([13]; over the fungal strains tested, based on MIC data of Table 1): inactive
MIC [14]: > 31.3 µg/mL
MIC [15]: 31.3 µg/mL (≈ 89.3 µM)
MIC [16]: > 31.3 µg/mL

C[C@@H](c1ncncc1F)[C@](O)(Cn1cncn1)c1ccc(F)cc1F [VOR, voriconazole, reference compound]
Percentage of hemolysis (±SDEV) ([17]; 0.975 μg/mL): 10.3 ± 2.1%
Percentage of hemolysis (±SDEV) ([17]; 1.95 μg/mL): 6.3 ± 1.9%
Percentage of hemolysis (±SDEV) ([17]; 3.9 μg/mL): 7.5 ± 0.5%
Percentage of hemolysis (±SDEV) ([17]; 7.8 μg/mL): 11.4 ± 10.9%
Percentage of hemolysis (±SDEV) ([17]; 15.6 μg/mL): 2.8 ± 1.3%
MIC ([4]; ATCC22019, strain J, MIC-2 (50% growth inhibition), reported for VOR): 1.95 µg/mL (≈ 5.58 µM)
MIC [5]: 0.975 µg/mL (≈ 2.79 µM)
MIC [6, 19]: 0.24 µg/mL (≈ 0.687 µM)
MIC ([7]; ATCC64124, strain B, MIC-2 (50% growth inhibition), reported for VOR): 0.24 µg/mL (≈ 0.687 µM)
MIC [9, 19]: 0.12 µg/mL (≈ 0.344 µM)
MIC [18]: 0.12 µg/mL (≈ 0.344 µM)
MIC [14]: > 31.3 µg/mL
MIC [15]: > 31.3 µg/mL
MIC [16]: > 31.3 µg/mL
